Data taken from doi:10.1101/2024.06.05.597555v1 (biorxiv, 2024).
Read-outs that look alike come from different tables or passages of the source.

Experiments:
[1] = biological target: T1, NS2B(H)-NS3pro (DENV-2 NS2B-NS3 protease) (Dengue virus 2 Thailand/NGS-C/1944, UniProt P14340); assay: biochemical; settings: read-out: % inhibition
T1 sequence (P14340 1394-1433 limits assumed): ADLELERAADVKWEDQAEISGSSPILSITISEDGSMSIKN
T1 sequence (P14340 1476-1660 limits assumed): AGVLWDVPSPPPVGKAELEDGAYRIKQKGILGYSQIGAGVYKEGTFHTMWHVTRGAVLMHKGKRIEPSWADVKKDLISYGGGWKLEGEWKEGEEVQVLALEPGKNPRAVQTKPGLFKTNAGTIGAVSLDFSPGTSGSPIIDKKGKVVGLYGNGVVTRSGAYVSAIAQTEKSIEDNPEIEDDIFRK

[2] = biological target: T1, NS2B(H)-NS3pro (DENV-2 NS2B-NS3 protease); settings: read-out: IC50 (C7.5-HEPES AMC); AMC substrate, HEPES pH 7.5, CHAPS; inhibitor
[3] = biological target: T2, DENV2proHeLa NS2B-NS3 protease (Dengue virus 2 Thailand/16681/84, UniProt P29990); assay: cell-based; set-up: species or system DENV2proHeLa (HeLa); settings: HeLa, read-out: % inhibition
[4] = biological target: T2, DENV2proHeLa NS2B-NS3 protease; assay: cell-based; set-up: species or system DENV2proHeLa (HeLa)
in vitro [5] = assay: in vitro; set-up: species or system DENV2proHeLa (HeLa); settings: human, denv2prohela cells
[6] = biological target: T1, NS2B(H)-NS3pro (DENV-2 NS2B-NS3 protease); assay: fluorometric protease assay, AMC substrate; type: biochemical; settings: pH 7.5, HEPES, CHAPS; substrate Bz-nKRR-AMC
[7] = biological target: T2, DENV2proHeLa NS2B-NS3 protease; assay: cell-based
[8] = biological target: T1, NS2B(H)-NS3pro (DENV-2 NS2B-NS3 protease); assay: biochemical; settings: read-out: % inhibition; remark: listed apart in the source
[9] = biological target: T2, DENV2proHeLa NS2B-NS3 protease; assay: cell-based; set-up: species or system DENV2proHeLa (HeLa); settings: HeLa, read-out: % inhibition; remark: listed apart in the source
in vitro [10] = assay: in vitro; set-up: species or system DENV2proHeLa (HeLa); settings: human, denv2prohela cells; remark: listed apart in the source
DENV-2 = assay: microbe, parasite or virus in culture; settings: Dengue virus, DENV2, Vero, 48 h, read-out: % inhibition
[11] = biological target: T1, NS2B(H)-NS3pro (DENV-2 NS2B-NS3 protease); assay: biochemical; settings: read-out: % inhibition; remark: listed apart in the source
[12] = biological target: T1, NS2B(H)-NS3pro (DENV-2 NS2B-NS3 protease); assay: biochemical; settings: read-out: % inhibition; remark: listed apart in the source
[13] = biological target: T1, NS2B(H)-NS3pro (DENV-2 NS2B-NS3 protease); assay: fluorometric protease assay, AMC substrate; type: biochemical; settings: read-out: % inhibition at 50 μM
[14] = biological target: T2, DENV2proHeLa NS2B-NS3 protease; assay: cell-based; set-up: species or system DENV2proHeLa (HeLa); settings: HeLa, read-out: % inhibition; remark: listed apart in the source
[15] = biological target: T2, DENV2proHeLa NS2B-NS3 protease; assay: cell-based; set-up: species or system DENV2proHeLa (HeLa); settings: read-out: DENV2proHeLa EC50; inhibitor
in vitro [16] = assay: in vitro; set-up: species or system DENV2proHeLa (HeLa); settings: human, denv2prohela cells; remark: listed apart in the source

T2 sequence (P29990 1476-2093 limits assumed): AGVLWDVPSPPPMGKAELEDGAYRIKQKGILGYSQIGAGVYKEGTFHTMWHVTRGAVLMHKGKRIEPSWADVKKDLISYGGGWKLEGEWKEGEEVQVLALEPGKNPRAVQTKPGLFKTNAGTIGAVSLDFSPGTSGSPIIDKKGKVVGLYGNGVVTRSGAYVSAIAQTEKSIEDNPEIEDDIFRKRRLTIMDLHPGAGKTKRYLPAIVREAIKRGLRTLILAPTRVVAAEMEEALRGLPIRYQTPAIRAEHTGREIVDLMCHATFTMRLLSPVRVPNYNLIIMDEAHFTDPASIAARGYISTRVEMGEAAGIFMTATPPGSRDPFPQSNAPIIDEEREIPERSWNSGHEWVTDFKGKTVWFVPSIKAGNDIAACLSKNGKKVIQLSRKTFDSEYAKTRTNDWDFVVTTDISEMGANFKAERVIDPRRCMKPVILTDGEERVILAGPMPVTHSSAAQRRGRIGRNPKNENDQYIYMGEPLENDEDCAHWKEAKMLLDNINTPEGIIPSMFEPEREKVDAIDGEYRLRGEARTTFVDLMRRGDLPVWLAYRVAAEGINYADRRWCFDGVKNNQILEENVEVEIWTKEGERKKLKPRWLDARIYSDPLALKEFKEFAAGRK
T2 sequence (P29990 1346-1475 partner limits assumed): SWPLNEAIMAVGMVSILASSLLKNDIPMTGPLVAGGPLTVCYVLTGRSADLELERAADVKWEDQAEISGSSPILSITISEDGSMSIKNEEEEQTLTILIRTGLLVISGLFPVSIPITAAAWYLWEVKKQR

NC(=O)c1cccc(NC(=O)[C@@H](NC(=O)C2COc3ccccc3C2)c2ccc(OCc3ccccc3)cc2)c1 (stereo partly drawn) [compound 26, 26]
inhibition at 50 µM [1]: 88%
IC50 [2]: 16 µM
inhibition at 12.5 µM [3]: 77%
EC50 [4]: 6.8 µM
CC50 (in vitro [5]): > 50 µM

NC(=O)c1cccc(NC(=O)C(Cc2ccc(OCc3ccc4ccccc4c3)cc2)NC(=O)c2ccc(Oc3ccccc3)cc2)c1 (stereo not drawn) [compound 63]
IC50 [6]: 4.8 µM
EC50 [7]: 5.1 µM
inhibition at 50 µM [8]: 100%
inhibition at 12.5 µM [9]: 82%
CC50 (in vitro [10]): 16 µM

CCCCC(CC)C(=O)N[C@H](C(=O)Nc1cccc(C(N)=O)c1)c1ccc(OCc2ccccc2)cc1 (stereo partly drawn) [compound 20, 20]
IC50 [2]: 22 µM
inhibition at 12.5 µM [3]: 63%
EC50 ([4]; read-out: DENV2proHeLa EC50, inhibitor): 11 µM
CC50 (in vitro [5]): > 50 µM
inhibition at 25 µM (DENV-2): 90%

CCCCCC(=O)N[C@H](C(=O)NCc1ccc(NC(=N)N)cc1)c1ccc(OCc2ccccc2)cc1 [NK-189]
inhibition at 50 µM [11]: 97%
inhibition at 25 µM (DENV-2): 21%
inhibition at 50 µM [12]: 95%

NC(=O)c1cccc(NC(=O)C(Cc2c[nH]c3ccccc23)NC(=O)c2ccc(Oc3ccccc3)cc2)c1 (stereo not drawn) [compound 69, 69]
inhibition at 50 µM [8]: 80%
inhibition at 12.5 µM [9]: 65%
CC50 (in vitro [10]): > 50 µM

COc1cc(CC(=O)N[C@H](C(=O)Nc2cccc(C(N)=O)c2)c2ccc(OCc3ccccc3)cc2)cc(OC)c1OC [compound 31]
inhibition at 50 µM [13]: 76%
inhibition at 12.5 µM [14]: 75%
EC50 [15]: 12 µM
CC50 (in vitro [16]): > 50 µM
inhibition at 25 µM (DENV-2): 11%

CCCCCC(=O)N[C@H](C(=O)Nc1cccc(C(N)=O)c1)c1ccc(OCc2ccccc2)cc1 [compound 2]
inhibition at 50 µM [13]: 64 ± 5.1%

CC(C(=O)NC(Cc1c[nH]c2ccccc12)C(=O)Nc1cccc(C(N)=O)c1)c1ccc2c(c1)[nH]c1ccc(Cl)cc12 (stereo not drawn) [compound 67, 67]
inhibition at 50 µM [8]: 91%
inhibition at 12.5 µM [9]: 91%
CC50 (in vitro [10]): 16 µM
